{"source": "patent US4818816A", "about": "“Process for the organic synthesis of oligosaccharides and derivatives thereof” (Choay, S.A., priority 1981, dated 1989)", "key": {"Xa factor [1]": {"system": "Xa factor", "experiment": "anti-Xa activity, Yin-Wessler test", "type": "biochemical"}, "AT III": {"system": "AT III", "experiment": "affinity for AT III", "type": "binding"}, "Xa factor [2]": {"system": "Xa factor", "experiment": "anti-Xa test using a chromogen substrate (method of Teien A.M. and Lie modified)", "type": "biochemical", "conditions": "Xa factor (Sigma) 8 u/ml, substrate 1.33 mM, diluted human plasma, 37° C.", "protocol": "In a test using a chromogen substrate, this activity has even been 4000 anti-Xa units/mg (method of Teien A.M. and Lie modified; Thrombosis Research No. 10, 1977, 388-410).\nThis test consists of using the Xa factor marketed by the Sigma company in solution at 8 u/ml in physiological serum, the concentration of the substrate being 1.33 mM.\nTo carry out this test it is possible to proceed as follows.\n10 μl of solution to be determined and 300 μl of human plasma diluted with Tris maleate buffer 0.02M, […] are mixed.\nIt is left to incubate one minute at 37° C.\n100 μl of the above-said Xa factor (8 u/ml) are added and one minute later, the solution obtained is injected into the substrate."}, "blood coagulation": {"system": "blood coagulation", "experiment": "APTT test, overall anticoagulant activity"}}, "data": [{"compound": "O=C(O)[C@H]1O[C@@H](O[C@H]2[C@H](OS(=O)(=O)O)[C@@H](NS(=O)(=O)O)C(O)O[C@@H]2COS(=O)(=O)O)[C@H](O)[C@@H](O)[C@@H]1O[C@H]1O[C@H](COS(=O)(=O)O)[C@@H](O)[C@H](O)[C@H]1NS(=O)(=O)O", "note": "(stereo partly shown)", "values": [{"measurement": "anti-Xa activity (Yin-Wessler)", "setting": "Xa factor [1]", "result": "~7", "unit": "u/mg"}]}, {"compound": "O=C(O)[C@H]1O[C@@H](O[C@H]2[C@H](OS(=O)(=O)O)[C@@H](NS(=O)(=O)O)[C@@H](O[C@H]3[C@H](O)[C@@H](OS(=O)(=O)O)[C@H](O[C@H]4[C@H](O)[C@@H](NS(=O)(=O)O)C(O)O[C@@H]4COS(=O)(=O)O)O[C@H]3C(=O)O)O[C@@H]2COS(=O)(=O)O)[C@H](O)[C@@H](O)[C@@H]1O[C@H]1O[C@H](COS(=O)(=O)O)[C@@H](O)[C@H](O)[C@H]1NS(=O)(=O)O", "note": "(stereo partly shown) [pentasaccharide 50]", "values": [{"measurement": "anti-Xa activity (Yin-Wessler)", "setting": "Xa factor [1]", "result": "≥ 2000", "unit": "u/mg"}, {"measurement": "Yin-Wessler titres compared with those of heparin", "setting": "Xa factor [1]; compared with heparin", "result": "distinctly higher"}, {"measurement": "selective inhibition activity of the activated X factor or Xa factor of the blood", "setting": "Xa factor [1]; test not specified", "result": "very high selective inhibition activity"}, {"measurement": "affinity for AT III", "setting": "AT III", "result": "high affinity"}, {"measurement": "anti-Xa activity in a test using a chromogen substrate", "setting": "Xa factor [2]", "result": 4000, "unit": "anti-Xa units/mg"}, {"measurement": "overall anticoagulant activity (APTT test)", "setting": "blood coagulation", "result": 4, "unit": "u/mg"}]}]}
